According to the Biogen ADME set (Fang et al. 2023):
Converted amounts (≈) assume the structure as drawn.

Details: for aqueous solubility: pH 6.8

Row | SMILES | MDR1-MDCK efflux ratio | intrinsic clearance, human liver microsomes | intrinsic clearance, rat liver microsomes | aqueous solubility | fraction unbound, human plasma | fraction unbound, rat plasma
1 | CN(CC(=O)Nc1ccncc1)C1CCCC1 | 0.484 | ≤ 4.74 mL/min/kg | 393 mL/min/kg | 40.8 µg/mL (≈ 175 µM) |  | 
2 | Fc1ccc(-n2nc(C3CCOCC3)nc2-c2cn[nH]c2)c(F)c1 | 19.6 | ≤ 4.74 mL/min/kg | 62.7 mL/min/kg | 25.9 µg/mL (≈ 78.1 µM) |  | 
3 | Cc1nnc(N2CCC(CNc3ccc(C#N)cn3)C2)c(C#N)c1C (configuration not stated) |  |  |  | 8.15 µg/mL (≈ 24.4 µM) |  | 
4 | Cc1cn(-c2cc(NC(=O)c3ccc(C)c(Nc4nccc(-c5cccnc5)n4)c3)cc(C(F)(F)F)c2)cn1 | 8.9 |  |  |  |  | 
5 | O=C(NCc1nnc2c(O)nccn12)C1CCCC1 | 1.22 | ≤ 4.74 mL/min/kg | ≤ 10.7 mL/min/kg | 41.8 µg/mL (≈ 160 µM) |  | 
6 | CCOc1nc(-c2ccc(Cl)c(Cl)c2)n(-c2cccc(NC(=O)c3ccc(F)cc3)c2)n1 | 2.67 |  |  | 0.25 µg/mL (≈ 0.53 µM) |  | 
7 | Cc1cc(C)nc(NS(=O)(=O)c2ccc(NC(=O)/C=C/c3ccc([N+](=O)[O-])s3)cc2)n1 |  | 14 mL/min/kg | 57.3 mL/min/kg |  |  | 
8 | Cc1cc(C(=O)NCC2CC2)n2nccc2n1 | 0.576 | 25.7 mL/min/kg | 74.9 mL/min/kg | 50.4 µg/mL (≈ 219 µM) |  | 
9 | CCn1c(SC)nnc1C1CCN(C)CC1 | 7.45 | ≤ 4.74 mL/min/kg | ≤ 10.7 mL/min/kg | 41.2 µg/mL (≈ 171 µM) |  | 
10 | CCOc1ccc(C(=O)Cn2c(=O)n(-c3ccc(F)cc3)c3nc(C)nc(C(N)=O)c32)cc1 | 0.926 |  |  | 0.39 µg/mL (≈ 0.868 µM) |  | 
11 | O=C(Nc1nc2ccccc2[nH]1)c1ccncc1 | 1.24 | ≤ 4.74 mL/min/kg | 109 mL/min/kg | 5.09 µg/mL (≈ 21.4 µM) |  | 
12 | O=C(CCCc1cc(Cl)sc1Cl)N1CCC(O)CC1 | 0.857 | 52.4 mL/min/kg | 741 mL/min/kg | 30.1 µg/mL (≈ 93.4 µM) |  | 
13 | CN(C)c1ccnc(NC(=O)c2cnsn2)c1 |  | 163 mL/min/kg | 280 mL/min/kg |  |  | 
14 | CC(C)(C)c1csc(NC(=O)C2CC2)n1 | 0.634 | 20.2 mL/min/kg | 89 mL/min/kg | 29.2 µg/mL (≈ 130 µM) |  | 
15 | CCc1cc(NC(=O)Cc2c(C)nc3nc(SC)nn3c2C)[nH]n1 |  |  |  | 15.8 µg/mL (≈ 45.8 µM) |  | 
16 | Cc1nccn1CCNC(=O)C(C)(C)C | 6.52 | ≤ 4.74 mL/min/kg | ≤ 10.7 mL/min/kg | 26.2 µg/mL (≈ 125 µM) |  | 
17 | Nc1nc(CN2CCN(c3ccc(F)cc3)CC2)cs1 | 0.597 | ≤ 4.74 mL/min/kg | 49.7 mL/min/kg | 57 µg/mL (≈ 195 µM) |  | 
18 | N#CN1CCC[C@H](n2nc(-c3ccc(Oc4ccc(F)cc4F)cc3)c(C(N)=O)c2N)C1 | 33 | ≤ 4.74 mL/min/kg | 68.2 mL/min/kg | 35.9 µg/mL (≈ 81.9 µM) |  | 
19 | Cc1ccc(Cn2ccn(-c3ccc(F)c(F)c3)c(=O)c2=O)cc1 | 0.671 |  |  | 0.35 µg/mL (≈ 1.07 µM) |  | 

Row | SMILES | MDR1-MDCK efflux ratio | intrinsic clearance, human liver microsomes | intrinsic clearance, rat liver microsomes | aqueous solubility | fraction unbound, human plasma | fraction unbound, rat plasma
20 | Cc1cc(NC(=O)c2ccc(Cl)cc2F)no1 |  |  |  | 7 µg/mL (≈ 27.5 µM) |  | 
21 | Cc1ccc2c(c1)cc(CNCCc1ccccc1)c1nnnn12 | 0.45 | 417 mL/min/kg | 1770 mL/min/kg | 24.9 µg/mL (≈ 78.5 µM) |  | 
22 | Cc1ccccc1N1C(=O)c2ccc(C(=O)NC(C)(C)C)cc2C1=O |  |  |  | 49.9 µg/mL (≈ 148 µM) |  | 
23 | CCn1c(=O)oc2cc(NC(=O)c3ccc(C(C)(C)C)cc3)ccc21 | 0.34 |  |  |  | 0.0162 | 0.0151
24 | O=C(Cc1ccc2c(c1)OCCO2)NC1CCCCCC1 | 0.619 | 194 mL/min/kg | 927 mL/min/kg | 42.1 µg/mL (≈ 146 µM) |  | 
25 | Cc1cc(C(=O)Nc2cccc3ncccc23)on1 | 0.559 | ≤ 4.74 mL/min/kg | 11.1 mL/min/kg | 45.4 µg/mL (≈ 179 µM) |  | 
26 | CC(C)c1nccn1Cc1nc(-c2cccs2)no1 |  | 13.6 mL/min/kg | 1930 mL/min/kg |  |  | 
27 | CNc1nc(N2CCCCC2)nc(N2CCCCC2)n1 |  | 54.7 mL/min/kg | 801 mL/min/kg | 27 µg/mL (≈ 97.5 µM) |  | 
28 | CC(=O)NC[C@H]1C[C@]2(C)[C@@H](CCCC[C@]2(C)O)N1CC1(O)CCCC1 | 8.2 | ≤ 4.74 mL/min/kg | 107 mL/min/kg |  |  | 
29 | Cc1cccc(C)c1NCc1noc(C2CC2)n1 |  | 203 mL/min/kg | 1540 mL/min/kg |  |  | 
30 | Clc1cc2ncc(-n3ccnc3)nc2cc1Cl | 0.485 | 16.8 mL/min/kg | 134 mL/min/kg | 2.96 µg/mL (≈ 11.2 µM) |  | 
31 | NC(=O)CC1CCN(c2ncccn2)CC1 | 1.01 | ≤ 4.74 mL/min/kg | ≤ 10.7 mL/min/kg | 58.2 µg/mL (≈ 264 µM) |  | 
32 | COc1cccc(NC(=O)C2CNC2)c1 |  | ≤ 4.74 mL/min/kg | 59.4 mL/min/kg | 29.5 µg/mL (≈ 143 µM) |  | 
33 | CO[C@H]1/C=C\C=C(/C)C(=O)NC2=CC(=O)C(NCCN(C)C)=C(C[C@@H](C)C[C@@H](OC)[C@@H](O)[C@@H](C)/C=C(\C)[C@H]1OC(N)=O)C2=O | 61.5 | 21 mL/min/kg | 73.6 mL/min/kg |  |  | 
34 | Cc1sc2nc(CN3CCC(C)CC3)nc(N3CCN(c4cnccn4)CC3)c2c1C | 9.31 | 228 mL/min/kg | 1980 mL/min/kg | 42 µg/mL (≈ 96 µM) |  | 
35 | CNC(=O)CC1CCN(c2ncccn2)CC1 | 0.823 | ≤ 4.74 mL/min/kg | ≤ 10.7 mL/min/kg | 50 µg/mL (≈ 213 µM) |  | 
36 | COc1cccc(C)c1C(=O)N(C)Cc1ncc[nH]1 | 6.32 | ≤ 4.74 mL/min/kg | 425 mL/min/kg |  |  | 
37 | COc1ccc(OC)c(C(=O)/C=C/c2ccccc2)c1 |  | 163 mL/min/kg | 1960 mL/min/kg |  |  | 

Second part, the molecule after the results:

Row | MDR1-MDCK efflux ratio | intrinsic clearance, human liver microsomes | intrinsic clearance, rat liver microsomes | aqueous solubility | fraction unbound, human plasma | fraction unbound, rat plasma | SMILES
38 | 46.7 | ≤ 4.74 mL/min/kg | 244 mL/min/kg |  |  |  | CNCc1cc(N(C)C)nc(C2CCCN2C(=O)COc2ccc(F)cc2)n1 (configuration not stated)
39 | 0.605 | 119 mL/min/kg | 741 mL/min/kg | 34.7 µg/mL (≈ 151 µM) |  |  | c1ccc(-c2noc(NCC3CCC3)n2)cc1
40 | 0.652 | 91 mL/min/kg | 869 mL/min/kg | 50.7 µg/mL (≈ 158 µM) |  |  | CC(C)c1nnc(CN2CCN(c3ccccc3Cl)CC2)o1
41 | 9.79 | ≤ 4.74 mL/min/kg | ≤ 10.7 mL/min/kg | 42.7 µg/mL (≈ 167 µM) |  |  | Cc1nc(O)c2c(n1)CN(Cc1ccccc1)CC2
42 | 27 | ≤ 4.74 mL/min/kg | 65.1 mL/min/kg | 65.5 µg/mL (≈ 155 µM) |  |  | COc1cc2c(cc1OC)CN(C(=O)C1CCCN(C(=O)Nc3ccccc3)C1)CC2 (configuration not stated)
43 | 5.37 | 11.2 mL/min/kg | 236 mL/min/kg |  |  |  | CCn1nc(CNC(=O)c2nc(C)c[nH]2)c2ccccc21
44 | 0.896 | ≤ 4.74 mL/min/kg | 176 mL/min/kg | 49.2 µg/mL (≈ 145 µM) |  |  | O=C(CCCc1ccc(F)cc1)N1CCN(c2ccccc2)C(=O)C1
45 | 40.1 | ≤ 4.74 mL/min/kg | 100 mL/min/kg | 40.5 µg/mL (≈ 112 µM) |  |  | Cc1ccc(-c2ccccc2-c2nc3c(cnn3C3CCN(C)CC3)[nH]2)o1
46 | 1.69 | 167 mL/min/kg | 283 mL/min/kg | 70 µg/mL (≈ 165 µM) |  |  | CCC(=O)N1CCCc2cc(C(O)CN3CCN(c4ccc(OC)cc4)CC3)ccc21 (configuration not stated)
47 | 0.58 | 44.7 mL/min/kg | 58.1 mL/min/kg | 34.7 µg/mL (≈ 169 µM) |  |  | CNC(=O)c1ccc(N2CCCC2)nc1
48 | 3.29 | 645 mL/min/kg | 1910 mL/min/kg |  |  |  | COC(=O)CCCNC(=O)CN1CCC(C(=O)c2ccc(C)cc2C)CC1
49 | 0.575 | 10.9 mL/min/kg | 146 mL/min/kg | 58.1 µg/mL (≈ 228 µM) |  |  | c1cnc(N2CCC(Cc3ccncc3)CC2)nc1
50 | 2.89 | ≤ 4.74 mL/min/kg | 34.5 mL/min/kg |  |  |  | O=S(=O)(NC[C@H]1CCCN1)c1ccc(OC(F)F)cc1
51 | 162 | ≤ 4.74 mL/min/kg | 64.5 mL/min/kg | 40.6 µg/mL (≈ 119 µM) |  |  | C[C@@H](C(=O)N1CCCC1)N1CCC(n2c(=O)[nH]c3ccccc32)CC1
52 | 0.666 | 134 mL/min/kg | 3140 mL/min/kg |  |  |  | CC(C)OCCS(=O)(=O)N1CCc2ccccc2CC1
53 |  | 81.5 mL/min/kg | 976 mL/min/kg | 57.4 µg/mL (≈ 165 µM) |  |  | COc1ccc(C2(NCc3cnn(-c4ccccc4)c3)CCCC2)cc1
54 | 0.445 |  |  | 0.2 µg/mL (≈ 0.539 µM) |  |  | O=c1[nH]c2nc(N3CCc4ccccc4C3)ncc2c(=O)n1-c1ccccc1
55 |  |  |  | 42.5 µg/mL (≈ 115 µM) |  |  | O=C(Nc1cc(C2CC2)n[nH]1)C1CCN(C(=O)COc2ccccc2)CC1
56 | 1.18 | 13.2 mL/min/kg | 1110 mL/min/kg | 28.5 µg/mL (≈ 92.1 µM) |  |  | Cc1cccc(NCC2CCN(C(=O)c3ccccc3)CC2)n1
57 | 43.2 | ≤ 4.74 mL/min/kg | ≤ 10.7 mL/min/kg | 56.7 µg/mL (≈ 173 µM) |  |  | O=C(Nn1cnc2ccccc21)c1c2c(nc3ccccc13)CCC2
58 | 1.06 | 63.1 mL/min/kg | 2860 mL/min/kg | 13.6 µg/mL (≈ 45.9 µM) |  |  | COc1ccc2c(c1)CN(C(=O)c1cc(C3CC3)[nH]n1)CC2
59 |  | ≤ 4.74 mL/min/kg | 262 mL/min/kg | 11 µg/mL (≈ 31.6 µM) |  |  | CC(C)[C@@H](C(=O)Nc1nc2ccccc2[nH]1)N1Cc2ccccc2C1=O
